For experiment [1], the system named is meningeal lymphatic vessels. In words: Visudyne meningeal lymphatic ablation, Aβ42 drainage and efflux (Example 1). The class given is in vivo, C57BL/6 mice. The settings on record: vs vehicle. As for the experimental part:
Visudyne (verteporfin) or vehicle (as control) were injected into the cisterna magna (intra-cisterna magna, ICM) of anesthetized adult C57BL/6 mice (3 months of age), followed by a photoconversion step that was achieved by shining a non-thermal red light (689 nm) in 5 points above the skull. 7 days after the initial procedure, Aβ42-HiLyte647 (1 μg) was stereotaxically injected (coordinates from bregma, AP=+1.5 mm, ML=−1.5 mm, DV=+2.5 mm) into the brain parenchyma. 1 h post injection, mice were transcardially perfused with saline and meninges, deep cervical lymph nodes (dcLNs) and brain were collected for analysis. Meningeal whole-mounts (scale bar, 1 mm) from vehicle (FIG. 23A) or visudyne (FIG. 23B) injected groups were stained for lymphatic vessel, endothelial hyaluronan receptor 1 (LYVE-1, green) and the blood vascular endothelial cell marker CD31 (red). Visudye alone is shown in the inset in the upper right corner of FIGS. 23A and 23B. […] Aβ42 alone is shown in the inset in the upper right corner of each of FIGS. 23E and 23F, and LYVE-1 alone is shown in the inset in the lower right corner of each of FIGS. 23E and 23F. Coronal brain sections (100 μm thick), both rostral and caudal to the injection site, were stained for glial fibrillary acidic protein (GFAP). […] Results are presented as mean±s.e.m. in FIGS. 23C, D, and G; n=6 in vehicle group and n=5 in visudyne group; *P<0.05. **P<0.01, one-tailed Mann-Whitney test; representative of 2 independent experiments).

In experiment [2] the test system is meningeal lymphatic vessels. The experiment is described as follows: Photoablation of meningeal lymphatic vessels, multiphoton 690 nm laser through thin skull (FIG. 18). The class given is in vivo, mice. The settings on record: 2 μl i.c.v., two hours after the ablation. As for the experimental part:
FIGS. 18A-D are a series of microscope images and graphs showing photoablation of meningeal lymphatic vessels. […] (cisterna magna) with 2 μl of Visudyne, which was activated using 690 nm laser of multiphoton microscope through thin skull. Two hours after the ablation, the meninges were collected and stained for lymphatic endothelial cell (Lyve-1) and blood vessels (laminin).

A further experiment deals with meningeal lymphatic. The experiment is described as follows: Lymphatic drainage of fluorescent microbeads into deep cervical lymph nodes (FIG. 15). The class given is in vivo, mice. The following applies: pharmacological ablation, 24 h after ablation, vs PBS. The protocol: FIGS. 15A-E are a series of diagrams, microscope images, and graphs showing modulation of the meningeal lymphatic affects drainage into the cervical lymph nodes. […] Fluorescent microbeads (0.5 μm in diameter-5 μl) were injected in the lateral ventricle of mice at a rate of 0.5 μl/min. 30 min later, the deep cervical lymph nodes were harvested, sliced and immunostained for the presence of fluorescent beads. FIG. 15B is a pair of representative sections of deep cervical lymph nodes from sham operated (left) and ligated (right) mice immunostained for lymphatic vasculature (Lyve-1), fluorescent microbeads and Lyve-1. Note the accumulation of microbeads in the subcapsular space of the lymph nodes in the sham operated mice (left). […] N=3-4 mice per group, Student-t-test. d. Quantification of the coverage of dCLN section by fluorescent beads in PBS and Visudyne injected mice (24 h after ablation). N=3-5 mice per group, *p<0.05, Student-t-test. e. Quantification of the coverage of dCLN section by fluorescent beads in PBS and VEGF-c injected mice (5 days after VEGF-c injection). N=4 mice per group.

Experiment [3] has as its system 5xFAD (APPSweFILon,PSEN1*M146L*L286V) transgenic mice. The experiment is described as follows: Visudyne ablation in 5xFAD mice, amyloid pathology (Example 9). Format: in vivo. The settings on record: ablation every 3 weeks for 1.5 months. The source says:
Meningeal lymphatic ablation in 1.5 months-old 5xFAD (APPSweFILon,PSEN1*M146L*L286V) transgenic mice was achieved by ICM injection of visudyne, or vehicle as a control, followed by a step of transcranial photoconversion. This procedure was repeated every 3 weeks, for a total of 1.5 months. Meninges of 5xFAD mice from the different groups were stained with DAPI and for LYVE-1 and Aβ. Aβ aggregates were detected in the meninges of 5xFAD mice that undergone lymphatic ablation by visudyne, but not in the meninges of vehicle-injected mice. Aβ aggregates formed specially around the sinuses and in the cerebellar meninges. Hippocampus was stained for DAPI and Amyloid-beta in vehicle or visudyne-injected 5xFAD mice (scale bar, 1 mm, inset, 200 μm). […] Results are presented as mean±s.e.m.; n=5 per group: *P<0.05, one-tailed Mann-Whitney test.

Consider 1 substance from patent publication US11944665B2, “Methods and compositions for modulating lymphatic vessels in the central nervous system” (University of Virginia Patent Foundation, priority 2016, dated 2024).

verteporfin [Visudyne]: the “drainage of Aβ42 in dcLNs” value in experiment [1] (1 h after Aβ42-HiLyte647 (1 μg) injection into brain parenchyma, 7 days post ablation) was “significantly less drainage”. For the same substance, the “efflux of Aβ42 from the brain (area fraction occupied by the fluorescent peptide)” value in experiment [1] (1 h after Aβ42-HiLyte647 injection, 7 days post ablation) is recorded as “decreased efflux”. Further, the “area of LYVE-1+ vessels (meningeal whole-mounts)” value in experiment [1] (visudyne ICM + photoconversion 689 nm, adult mice, 7 days after) is reported as “significant decrease”. The “coverage by CD31+ vessels (meningeal whole-mounts)” value in experiment [1] (visudyne ICM + photoconversion, 7 days after) is on record as “no changes”. Also, in experiment [2], the “effect on the blood vessels (laminin)” value is given as “No effect on the blood vessels was observed”, the “lymphatic vessels at the area of ablation (superior sagittal sinus)” value is “Disruption of lymphatic vessels is evident” and the “lymphatic vessels in transverse sinuses” value was “trend to disruption”. The “lymphatic drainage into the cervical lymph nodes after ablation” value with meningeal lymphatic is “alteration of lymphatic drainage”. Further, the “Aβ aggregates in the meninges” value in experiment [3] (not in vehicle-injected mice) was “detected”. In experiment [3] (vs vehicle), the “amyloid plaque coverage in the hippocampus” value is “statistically significant increase”, the “amyloid plaque number in the hippocampus” value is listed as “statistically significant increase” and the “amyloid plaque size in the hippocampus” value is “trend for increased plaque size”.
